Experimental data as given in ChEMBL document CHEMBL5537115, “New broad-spectrum and potent antibacterial agents with dual-targeting mechanism: Promoting FtsZ polymerization and disrupting bacterial membranes” (Eur J Med Chem, 2024).
Active and inactive are the calls of the source. The calls are words filed in the database; no cut-off is given here.

Key:
Acinetobacter baumannii [1] = test: Selectivity ratio of MBC for Acinetobacter baumannii ATCC19606 to MIC for Acinetobacter baumannii ATCC19606; format: functional
Acinetobacter baumannii [2] = test: Antibacterial activity against Acinetobacter baumannii ATCC19606 incubated for 18 to 24 hrs; format: functional; conditions: time 18-24 hrs
Staphylococcus aureus [3] = test: Selectivity ratio of MBC for Staphylococcus aureus clinical isolate to MIC for Staphylococcus aureus clinical isolate; format: functional
Staphylococcus aureus [4] = test: Antibacterial activity against Staphylococcus aureus clinical isolate incubated for 18 to 24 hrs; format: functional; conditions: time 18-24 hrs
Staphylococcus aureus [5] = test: Selectivity ratio of MBC for methicillin-resistant Staphylococcus aureus ATCC43300 to MIC for methicillin-resistant Staphylococcus aureus ATCC43300; format: functional
Bacillus subtilis [6] = test: Selectivity ratio of MBC for penicillin-susceptible Bacillus subtilis ATCC9372 to MIC for penicillin-susceptible Bacillus subtilis ATCC9372; format: functional
Bacillus subtilis [7] = test: Antibacterial activity against penicillin-susceptible Bacillus subtilis ATCC9372 incubated for 18 to 24 hrs; format: functional; conditions: time 18-24 hrs
Staphylococcus aureus [8] = test: Antibacterial activity against methicillin-resistant Staphylococcus aureus ATCC43300 incubated for 18 to 20 hrs; format: functional; conditions: time 18-20 hrs
Staphylococcus aureus [9] = test: Selectivity ratio of MBC for erythromycin-susceptible Staphylococcus aureus ATCC25923 to MIC for erythromycin-susceptible Staphylococcus aureus ATCC25923; format: functional
Staphylococcus aureus [10] = test: Antibacterial activity against erythromycin-susceptible Staphylococcus aureus ATCC25923 incubated for 18 to 24 hrs; format: functional; conditions: time 18-24 hrs
Streptococcus pyogenes [11] = test: Antibacterial activity against erythromycin-resistant Streptococcus pyogenes 2 clinical isolate assessed as bacterial growth inhibition incubated for 20 hrs by CLSI based broth microdilution method; format: functional
[12] = tested on: Staphylococcus epidermidis; test: Antibacterial activity against penicillin-resistant Staphylococcus epidermidis clinical isolate assessed as bacterial growth inhibition incubated for 20 hrs by CLSI based broth microdilution method; format: functional
Staphylococcus aureus [13] = test: Antibacterial activity against Staphylococcus aureus clinical isolate assessed as bacterial growth inhibition incubated for 20 hrs by CLSI based broth microdilution method; format: functional
Staphylococcus aureus [14] = test: Antibacterial activity against penicillin-resistant Staphylococcus aureus ATCC31007 assessed as bacterial growth inhibition incubated for 20 hrs by CLSI based broth microdilution method; format: functional
Staphylococcus aureus [15] = test: Antibacterial activity against methicillin-resistant Staphylococcus aureus ATCC43300 assessed as bacterial growth inhibition incubated for 20 hrs by CLSI based broth microdilution method; format: functional
Klebsiella pneumoniae = test: Antibacterial activity against Klebsiella pneumoniae ATCC BAA-1902 assessed as bacterial growth inhibition incubated for 20 hrs by CLSI based broth microdilution method; format: functional
Acinetobacter baumannii [16] = test: Antibacterial activity against Acinetobacter baumannii ATCC19606 assessed as bacterial growth inhibition incubated for 20 hrs by CLSI based broth microdilution method; format: functional
Escherichia coli [17] = test: Antibacterial activity against wild-type Escherichia coli BW25113 assessed as bacterial growth inhibition incubated for 20 hrs by CLSI based broth microdilution method; format: functional
Escherichia coli [18] = test: Antibacterial activity against penicillin-susceptible Escherichia coli ATCC25922 assessed as bacterial growth inhibition incubated for 20 hrs by CLSI based broth microdilution method; format: functional
Enterococcus faecium [19] = test: Antibacterial activity against vancomycin-susceptible Enterococcus faecium ATCC19434 assessed as bacterial growth inhibition incubated for 20 hrs by CLSI based broth microdilution method; format: functional
Enterococcus faecalis [20] = test: Antibacterial activity against vancomycin-susceptible Enterococcus faecalis ATCC29212 assessed as bacterial growth inhibition incubated for 20 hrs by CLSI based broth microdilution method; format: functional
Streptococcus pyogenes [21] = test: Antibacterial activity against erythromycin-susceptible Streptococcus pyogenes 1 assessed as bacterial growth inhibition incubated for 20 hrs by CLSI based broth microdilution method; format: functional
Staphylococcus aureus [22] = test: Antibacterial activity against erythromycin-susceptible Staphylococcus aureus ATCC25923 assessed as bacterial growth inhibition incubated for 20 hrs by CLSI based broth microdilution method; format: functional
Bacillus pumilus = test: Antibacterial activity against penicillin-susceptible Bacillus pumilus CMCC63202 assessed as bacterial growth inhibition incubated for 20 hrs by CLSI based broth microdilution method; format: functional
Bacillus subtilis [23] = test: Antibacterial activity against penicillin-susceptible Bacillus subtilis ATCC9372 assessed as bacterial growth inhibition incubated for 20 hrs by CLSI based broth microdilution method; format: functional
Enterococcus faecalis [24] = test: Antibacterial activity against vancomycin-resistant Enterococcus faecalis ATCC51299 assessed as bacterial growth inhibition incubated for 20 hrs by CLSI based broth microdilution method; format: functional
Enterococcus faecium [25] = test: Antibacterial activity against vancomycin-resistant Enterococcus faecium ATCC51559 assessed as bacterial growth inhibition incubated for 20 hrs by CLSI based broth microdilution method; format: functional
Staphylococcus aureus [26] = test: Induction of resistance development in Staphylococcus aureus ATCC25923 assessed as fold increase in MIC at 0.5 times MIC measured after 32 days by multi-passage resistance assay relative to control; format: functional; conditions: time 32.0 day
Staphylococcus aureus [27] = test: Inhibition of biofilm formation of Staphylococcus aureus ATCC25923 incubated for 20 hrs by crystal violet staining based analysis; format: functional, organism-based
Staphylococcus aureus [28] = test: Inhibition of biofilm formation of Staphylococcus aureus ATCC25923 at 0.5 ug/ml incubated for 20 hrs by crystal violet staining based analysis relative to control; format: functional
Bacillus subtilis [29] = test: Induction of morphological change in Bacillus subtilis ATCC9372 assessed as increase in cell length at 0.5 times MIC by phase contrast microscopy; format: functional, organism-based
[30] = biological target: T1, Cell division protein FtsZ (Bacillus subtilis) (UniProt A5Z1V5); test: Induction of FtsZ polymerization in Bacillus subtilis at 2.5 to 10 ug/ml preincubated with compound followed by GTP addition by absorbance based assay; conditions: dose 2.5-10 µg/ml, time 40.0 min, TDE = time-dependent effect
T1 sequence (whole entry): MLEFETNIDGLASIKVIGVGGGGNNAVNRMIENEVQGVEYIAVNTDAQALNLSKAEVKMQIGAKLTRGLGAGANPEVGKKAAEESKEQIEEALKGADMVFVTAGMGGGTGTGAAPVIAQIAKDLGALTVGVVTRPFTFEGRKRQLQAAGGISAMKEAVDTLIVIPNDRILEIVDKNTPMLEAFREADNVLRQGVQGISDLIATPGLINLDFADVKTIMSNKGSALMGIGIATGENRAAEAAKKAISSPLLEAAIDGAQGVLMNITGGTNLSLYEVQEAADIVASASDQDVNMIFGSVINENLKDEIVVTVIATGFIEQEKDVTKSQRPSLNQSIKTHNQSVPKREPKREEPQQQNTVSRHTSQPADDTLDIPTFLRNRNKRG

[31] = biological target: T1, Cell division protein FtsZ (Bacillus subtilis); test: Induction of FtsZ polymerization in Bacillus subtilis preincubated for 10 mins followed by GTP addition measured upto 30 mins by absorbance based assay; conditions: dose 2.5-10 µg/ml, time 40.0 min
[32] = biological target: T1, Cell division protein FtsZ (Bacillus subtilis); test: Induction of FtsZ polymerization in Bacillus subtilis assessed as bundling of FtsZ protofilaments at 10 ug/ml preincubated for 15 mins followed by GTP addition measured after 10 mins by TEM analysis; conditions: dose 10.0 µg/ml, time 25.0 min
Staphylococcus aureus [33] = test: Induction of membrane potential depolarization in Staphylococcus aureus ATCC25923 measured after 20 mins by diSC35 dye based spectroscopy; format: functional, organism-based
Staphylococcus aureus [34] = test: Disruption of inner membrane in Staphylococcus aureus ATCC25923 measured after 12 mins by PI staining based analysis; format: functional, organism-based
Staphylococcus aureus [35] = test: Disruption of inner membrane in Staphylococcus aureus ATCC25923 by PI staining based analysis; format: functional, organism-based; conditions: time 12.0 min, TDE = time-dependent effect
Staphylococcus aureus [36] = test: Induction of morphological change in Staphylococcus aureus ATCC25923 assessed as loss of bacterial membrane integrity at 16 times MIC incubated for 2 hrs by TEM analysis; format: functional, organism-based
Staphylococcus aureus [37] = test: Induction of morphological change in Staphylococcus aureus ATCC25923 assessed as leakage of cell contents at 16 times MIC incubated for 2 hrs by TEM analysis; format: functional, organism-based
[38] = Hemolytic activity in mouse erythrocytes at 16 ug/ml incubated for 1 hr by absorbance based assay; format: toxicity, cell-based, Erythrocyte; conditions: at 16 µg/mL, read-out: Activity
[39] = Hemolytic activity in mouse erythrocytes at 32 ug/ml incubated for 1 hr by absorbance based assay; format: toxicity, cell-based, Erythrocyte; conditions: at 32 µg/mL, read-out: Activity
[40] = Hemolytic activity in mouse erythrocytes at 128 ug/ml incubated for 1 hr by absorbance based assay; format: toxicity, cell-based, Erythrocyte; conditions: dose 128 µg/ml, read-out: Activity

C[n+]1cc(-c2ccccc2)c(/C=C/c2ccc(N3CCCC3)cc2)cc1-c1ccc(C(C)(C)C)cc1.[I-]
Ratio (Acinetobacter baumannii [1]): 2 | MBC (Acinetobacter baumannii [2]): 2 µg/mL | Ratio (Staphylococcus aureus [3]): 1 | MBC (Staphylococcus aureus [4]): 0.5 µg/mL | Ratio (Staphylococcus aureus [5]): 2 | Ratio (Bacillus subtilis [6]): 1 | MBC (Bacillus subtilis [7]): 0.5 µg/mL | MBC (Staphylococcus aureus [8]): 1 µg/mL | Ratio (Staphylococcus aureus [9]): 8 | MBC (Staphylococcus aureus [10]): 1 µg/mL | MIC (Streptococcus pyogenes [11]): 1 µg/mL | MIC [12]: 1 µg/mL | MIC (Staphylococcus aureus [13]): 0.5 µg/mL | MIC (Staphylococcus aureus [14]): 0.25 µg/mL | MIC (Staphylococcus aureus [15]): 0.5 µg/mL | MIC (Klebsiella pneumoniae): 16 µg/mL | MIC (Acinetobacter baumannii [16]): 1 µg/mL | MIC (Escherichia coli [17]): 8 µg/mL | MIC (Escherichia coli [18]): 8 µg/mL | MIC (Enterococcus faecium [19]): 2 µg/mL | MIC (Enterococcus faecalis [20]): 0.5 µg/mL | MIC (Streptococcus pyogenes [21]): 0.5 µg/mL | MIC (Staphylococcus aureus [22]): 0.062 µg/mL | MIC (Bacillus pumilus): 0.062 µg/mL | MIC (Bacillus subtilis [23]): 0.5 µg/mL | MIC (Enterococcus faecalis [24]): 2 µg/mL | MIC (Enterococcus faecium [25]): 2 µg/mL | fold change (FC) (Staphylococcus aureus [26]): 2 | inhibition (Staphylococcus aureus [27]): Dose-Dependent Effect | inhibition at 0.5 µg/mL (Staphylococcus aureus [28]): 59.1% | Activity (Bacillus subtilis [29]): Active | Activity [30]: Tde | Activity [31]: Dose-Dependent Effect | Activity [32]: Active | Activity (Staphylococcus aureus [33]): Dose-Dependent Effect | Activity (Staphylococcus aureus [34]): Dose-Dependent Effect | Activity (Staphylococcus aureus [35]): Tde | Activity (Staphylococcus aureus [36]): Active | Activity (Staphylococcus aureus [37]): Active | hemolysis at 1 h, 16 ug/ml [38]: 4.65% | hemolysis at 1 h, 32 ug/ml [39]: 13.7%

Cc1ccccc1-c1c[n+](C)c(-c2ccc(C(C)(C)C)cc2)cc1/C=C/c1ccc(O)cc1.[I-]
Ratio (Acinetobacter baumannii [1]): 4 | MBC (Acinetobacter baumannii [2]): 16 µg/mL | Ratio (Staphylococcus aureus [3]): 8 | MBC (Staphylococcus aureus [4]): 4 µg/mL | Ratio (Staphylococcus aureus [5]): 16 | Ratio (Bacillus subtilis [6]): 4 | MBC (Bacillus subtilis [7]): 2 µg/mL | MBC (Staphylococcus aureus [8]): 2 µg/mL | Ratio (Staphylococcus aureus [9]): 32 | MBC (Staphylococcus aureus [10]): 2 µg/mL | MIC (Streptococcus pyogenes [11]): 2 µg/mL | MIC [12]: 2 µg/mL | MIC (Staphylococcus aureus [13]): 0.125 µg/mL | MIC (Staphylococcus aureus [14]): 1 µg/mL | MIC (Staphylococcus aureus [15]): 0.125 µg/mL | MIC (Klebsiella pneumoniae): > 64 µg/mL | MIC (Acinetobacter baumannii [16]): 4 µg/mL | MIC (Escherichia coli [17]): > 64 µg/mL | MIC (Escherichia coli [18]): 32 µg/mL | MIC (Enterococcus faecium [19]): 2 µg/mL | MIC (Enterococcus faecalis [20]): 2 µg/mL | MIC (Streptococcus pyogenes [21]): 1 µg/mL | MIC (Staphylococcus aureus [22]): 0.062 µg/mL | MIC (Bacillus pumilus): 1 µg/mL | MIC (Bacillus subtilis [23]): 0.5 µg/mL | MIC (Enterococcus faecalis [24]): 2 µg/mL | MIC (Enterococcus faecium [25]): 2 µg/mL | fold change (FC) (Staphylococcus aureus [26]): 2 | inhibition (Staphylococcus aureus [27]): Dose-Dependent Effect | inhibition at 0.5 µg/mL (Staphylococcus aureus [28]): 39% | Activity (Bacillus subtilis [29]): Active | Activity [30]: Tde | Activity [31]: Dose-Dependent Effect | Activity [32]: Active | Activity (Staphylococcus aureus [33]): Dose-Dependent Effect | Activity (Staphylococcus aureus [34]): Dose-Dependent Effect | Activity (Staphylococcus aureus [35]): Tde | Activity (Staphylococcus aureus [36]): Active | Activity (Staphylococcus aureus [37]): Active | hemolysis at 1 h, 128 ug/ml [40]: 7.59%
